# From paper PMC8645336, “Benchmarking a highly selective USP30 inhibitor for enhancement of mitophagy and pexophagy” (Life Science Alliance, 2021)
# Experiments:
# Assay in all cases: biochemical
# Parameters in all cases: Ubiquigent DUB profiler selectivity panel, remaining enzyme activity as % of control
# Conditions in all cases: read-out: % of control remaining
# OTUD5 (p177S) = molecular target: T1, OTUD5 (p177S) (Homo sapiens, UniProt Q96G74)
# T1 construct: phosphorylated S177
# T1 sequence (Q96G74 1-571): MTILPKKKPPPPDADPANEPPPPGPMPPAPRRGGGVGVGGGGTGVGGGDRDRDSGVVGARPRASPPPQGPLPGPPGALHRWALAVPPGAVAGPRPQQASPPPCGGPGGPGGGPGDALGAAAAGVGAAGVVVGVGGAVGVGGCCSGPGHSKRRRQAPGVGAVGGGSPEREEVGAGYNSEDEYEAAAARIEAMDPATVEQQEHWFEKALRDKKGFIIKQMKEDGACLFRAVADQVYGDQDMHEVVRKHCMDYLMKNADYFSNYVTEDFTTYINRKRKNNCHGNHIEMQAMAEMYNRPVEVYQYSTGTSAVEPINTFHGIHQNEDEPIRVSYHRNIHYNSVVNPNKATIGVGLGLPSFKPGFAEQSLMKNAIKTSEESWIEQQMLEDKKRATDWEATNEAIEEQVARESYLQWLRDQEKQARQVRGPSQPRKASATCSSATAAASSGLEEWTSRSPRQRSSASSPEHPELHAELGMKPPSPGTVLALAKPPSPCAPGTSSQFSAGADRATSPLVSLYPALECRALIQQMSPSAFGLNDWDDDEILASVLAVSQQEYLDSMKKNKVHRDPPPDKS
# Method in brief: (§1)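 CMPD-39 selectivity was profiled at 1-100 μM across >40 DUBs. Cellular engagement used 2 h CMPD-39 pretreatment, then HA-Ub-PA probe for 10 min at 37°C, with USP30 band shift on immunoblot. TOMM20 ubiquitylation was blotted in YFP-PRKN hTERT-RPE1 cells after 1 h antimycin A/oligomycin A (1 μM each).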
# USP27x = molecular target: T2, USP27x (Homo sapiens, UniProt A6NNY8)
# T2 sequence (A6NNY8 1-438): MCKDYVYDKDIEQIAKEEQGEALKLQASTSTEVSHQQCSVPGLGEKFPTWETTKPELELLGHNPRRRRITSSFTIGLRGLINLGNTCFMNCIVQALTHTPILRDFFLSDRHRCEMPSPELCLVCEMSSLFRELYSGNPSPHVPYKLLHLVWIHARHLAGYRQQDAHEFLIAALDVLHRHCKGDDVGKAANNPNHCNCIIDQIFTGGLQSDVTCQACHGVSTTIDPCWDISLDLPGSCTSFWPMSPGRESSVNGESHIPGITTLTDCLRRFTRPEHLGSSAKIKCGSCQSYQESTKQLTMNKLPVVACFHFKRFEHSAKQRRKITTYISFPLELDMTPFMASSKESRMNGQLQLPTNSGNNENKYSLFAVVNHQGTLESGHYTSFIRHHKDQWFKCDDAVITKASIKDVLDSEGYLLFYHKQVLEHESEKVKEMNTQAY
# Method in brief: as §1
# USP5 = molecular target: T3, USP5 (Homo sapiens, UniProt P45974)
# T3 sequence (P45974 1-858): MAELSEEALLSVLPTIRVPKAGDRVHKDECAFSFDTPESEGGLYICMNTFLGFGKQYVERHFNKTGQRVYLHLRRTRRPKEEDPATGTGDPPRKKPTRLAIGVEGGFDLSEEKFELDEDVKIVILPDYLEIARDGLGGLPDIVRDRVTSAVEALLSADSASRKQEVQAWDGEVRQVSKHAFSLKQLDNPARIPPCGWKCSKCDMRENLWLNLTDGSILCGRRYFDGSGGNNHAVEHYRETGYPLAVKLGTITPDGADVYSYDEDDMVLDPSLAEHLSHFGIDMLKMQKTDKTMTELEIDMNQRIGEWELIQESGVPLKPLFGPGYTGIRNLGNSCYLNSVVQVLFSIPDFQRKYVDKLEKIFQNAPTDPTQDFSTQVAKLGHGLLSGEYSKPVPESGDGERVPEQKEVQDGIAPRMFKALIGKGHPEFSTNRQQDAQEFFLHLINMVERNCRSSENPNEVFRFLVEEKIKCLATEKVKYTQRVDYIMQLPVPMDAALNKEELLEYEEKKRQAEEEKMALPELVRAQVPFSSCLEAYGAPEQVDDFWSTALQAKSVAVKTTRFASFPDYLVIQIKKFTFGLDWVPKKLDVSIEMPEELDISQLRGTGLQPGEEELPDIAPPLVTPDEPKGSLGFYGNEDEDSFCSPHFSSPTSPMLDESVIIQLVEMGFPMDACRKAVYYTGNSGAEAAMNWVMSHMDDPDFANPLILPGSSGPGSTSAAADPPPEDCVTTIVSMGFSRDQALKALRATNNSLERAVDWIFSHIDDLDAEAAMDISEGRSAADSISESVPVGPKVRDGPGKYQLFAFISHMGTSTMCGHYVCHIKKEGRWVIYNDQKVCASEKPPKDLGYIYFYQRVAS
# Method in brief: as §1
smiles,measurement,setting,value
"CC(C)(C)NS(=O)(=O)c1ccc(NC(=O)[C@H](Cc2ccccc2)NC(=O)c2ccc(F)cc2)cc1 [compound 39, CMPD-39]",remaining activity at 1 µM,OTUD5 (p177S),108%
same,remaining activity at 10 µM,OTUD5 (p177S),106%
same,remaining activity at 100 µM,OTUD5 (p177S),89.9%
same,remaining activity at 1 µM,USP27x,108%
same,remaining activity at 10 µM,USP27x,93.8%
same,remaining activity at 100 µM,USP27x,93.4%
same,remaining activity at 1 µM,USP5,104%
same,remaining activity at 10 µM,USP5,101%
same,remaining activity at 100 µM,USP5,106%
